Laboratory results as given in patent publication US20110306639A1, “HYDROCARBYLIDENE NITROHYDROZINECARBOXIMIDAMIDES AND A METHOD FOR MAKING THE SAME, AS WELL AS THEIR USES AS AN INSECTICIDE” (priority 2008, published 2011).
Read-outs that look alike come from different tables or passages of the source.

Tests used:
[1] = system: asparagus caterpillar
[2] = system: Helicoverpa armigera
[3] = system: myzus persicae

| Structure (SMILES) | mortality(%) asparagus caterpillar (500 μg/mL) ([1]; in vivo) [%] | mortality(%) Helicoverpa armigera (500 μg/mL) ([2]; 500 μg/mL, 48 hours) [%] | mortality(%) myzus persicae (600 μg/mL) ([3]; in vivo) [%] | mortality(%) Helicoverpa armigera (500 μg/mL) ([2]; in vivo) [%] | mortality(%) asparagus caterpillar (500 μg/mL) ([1]; 500 μg/mL, 48 hours) [%] | mortality(%) myzus persicae (600 μg/mL) ([3]; 600 μg/mL) [%] |
| --- | --- | --- | --- | --- | --- | --- |
| CCCCNC(=N[N+](=O)[O-])NN=Cc1ccccc1OC [Compound 74] | 30 | 0 | 40.4 | – | – | – |
| CCCNC(=N[N+](=O)[O-])NN=Cc1ccccc1Cl [Compound 90] | 50 | – | 41.2 | 10 | – | – |
| C#CCNC(=N[N+](=O)[O-])NN=CC=C [Compound 43] | 20 | 40 | – | – | – | – |
| CCCCC=NNC(=N[N+](=O)[O-])NCCCC [Compound 52] | 60 | 20 | 81.0 | – | – | – |
| CCCC=NNC(=N[N+](=O)[O-])NCC [Compound 24] | 0 | 40 | 4.7 | – | – | – |
| C#CCNC(=N[N+](=O)[O-])NN=CC=C(C)CCC=C(C)C [Compound 21] | 30 | – | 12.8 | 20 | – | – |
| CCNC(=N[N+](=O)[O-])NN=CC(C)C [Compound 2] | 50 | 60 | 53.6 | – | – | – |
| CCC=NNC(=N[N+](=O)[O-])NCc1ccccc1 [Compound 14] | 30 | 40 | 18.8 | – | – | – |
| C=CCNC(=N[N+](=O)[O-])NN=CCCC [Compound 27] | 40 | 30 | 65.1 | – | – | – |
| C=CCNC(=N[N+](=O)[O-])NN=Cc1ccc(OCC)c(OC)c1 [Compound 99] | 30 | – | 45.8 | 50 | – | – |
| C#CCNC(=N[N+](=O)[O-])NN=Cc1ccccc1Cl [Compound 94] | 60 | – | 31.2 | 50 | – | – |
| C=CC=NNC(=N[N+](=O)[O-])NCCCC [Compound 41] | 10 | 20 | 74.7 | – | – | – |
| Cc1ccc(C=NNC(=N[N+](=O)[O-])NCc2ccc(Cl)nc2)cc1 [Compound 107] | – | 10 | – | – | 20 | 3.7 |
| CC(C)=CCCC(C)=CC=NNC(=N[N+](=O)[O-])NCc1ccccc1 [Compound 22] | 20 | – | 7.1 | 20 | – | – |
| CCOc1ccc(C=NNC(=N[N+](=O)[O-])NCc2ccccc2)cc1OC [Compound 98] | 10 | – | 13.3 | 40 | – | – |
| C=CCNC(=N[N+](=O)[O-])NN=Cc1ccc(N(C)C)cc1 [Compound 72] | 50 | – | 23.6 | 50 | – | – |
| CCCCNC(=N[N+](=O)[O-])NN=Cc1ccc(OCC)c(OC)c1 [Compound 97] | 70 | – | 35.8 | 40 | – | – |
| CCCC=NNC(=N[N+](=O)[O-])NCCC [Compound 25] | 10 | 50 | – | – | – | – |
| C#CCNC(=N[N+](=O)[O-])NN=CCC [Compound 13] | 0 | 50 | 5.0 | – | – | – |
| C=CCNC(=N[N+](=O)[O-])NN=CCCCCCC [Compound 47] | 0 | 0 | 23.7 | – | – | – |
| CCCNC(=N[N+](=O)[O-])NN=Cc1ccc(N(C)C)cc1 [Compound 70] | 80 | – | – | 40 | – | – |
| C=CC=NNC(=N[N+](=O)[O-])NCC [Compound 39] | 40 | 20 | – | – | – | – |
| CC=CC=NNC(=N[N+](=O)[O-])NCCCC [Compound 34] | 60 | 40 | – | – | – | – |
| CN(C)c1ccc(C=NNC(=N[N+](=O)[O-])NCc2ccccc2)cc1 [Compound 71] | 90 | – | – | 30 | – | – |
| C=CCNC(=N[N+](=O)[O-])NN=CCC [Compound 12] | 40 | 30 | – | – | – | – |
| O=[N+]([O-])N=C(NCc1ccc(Cl)nc1)NN=Cc1ccc(Cl)cc1 [Compound 108] | 50 | – | – | 50 | – | – |
